Assays:
Test in all cases: relative viability (nuclei count vs DMSO), 5 days (fraction); higher = more cells survive
[1] = compound: Cn1nnc2c(C(N)=O)ncn2c1=O [Temozolomide] + CC1(C)CCC(c2ccc(Cl)cc2)=C(CN2CCN(c3ccc(C(=O)NS(=O)(=O)c4ccc(N[C@H](CCN5CCOCC5)CSc5ccccc5)c(S(=O)(=O)C(F)(F)F)c4)cc3)CC2)C1 [Navitoclax] (partner 0.5 µM)
Outline: (§1)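 Lung cancer cell lines in 1536-well plates got either a single drug or a fixed anchor-drug dose together with five library-drug doses (not always all listed) in √10 steps, by pin tool, on the day after seeding. Nuclei were counted after 5 days, and relative viability is the treated-to-vehicle ratio of nuclei counts. Values are medians of duplicate plates.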

[2] = compound: Cn1nnc2c(C(N)=O)ncn2c1=O [Temozolomide] + CCNC(=O)c1noc(-c2cc(C(C)C)c(O)cc2O)c1-c1ccc(CN2CCOCC2)cc1 [Luminespib] (partner 0.01 µM)
Outline: as §1

Temozolomide + Dasatinib = compound: Cn1nnc2c(C(N)=O)ncn2c1=O [Temozolomide] + Cc1nc(Nc2ncc(C(=O)Nc3c(C)cccc3Cl)s2)cc(N2CCN(CCO)CC2)n1 [Dasatinib] (partner 0.075 µM)
Outline: as §1

Temozolomide + AZD7762 = compound: Cn1nnc2c(C(N)=O)ncn2c1=O [Temozolomide] + NC(=O)Nc1cc(-c2cccc(F)c2)sc1C(=O)N[C@H]1CCCNC1 [AZD7762] (partner 0.2 µM)
Outline: as §1

| Cell Line | relative viability ([1]; first compound 0.2 µM) | relative viability ([1]; first compound 0.6325 µM) | relative viability ([1]; first compound 2 µM) | relative viability ([1]; first compound 6.325 µM) | relative viability ([1]; first compound 20 µM) | relative viability ([2]; first compound 0.2 µM) | relative viability ([2]; first compound 0.6325 µM) | relative viability ([2]; first compound 2 µM) | relative viability ([2]; first compound 6.325 µM) | relative viability ([2]; first compound 20 µM) | relative viability (Temozolomide + Dasatinib; first compound 0.2 µM) | relative viability (Temozolomide + Dasatinib; first compound 0.6325 µM) | relative viability (Temozolomide + Dasatinib; first compound 2 µM) | relative viability (Temozolomide + Dasatinib; first compound 6.325 µM) | relative viability (Temozolomide + Dasatinib; first compound 20 µM) | relative viability (Temozolomide + AZD7762; first compound 0.2 µM) | relative viability (Temozolomide + AZD7762; first compound 0.6325 µM) | relative viability (Temozolomide + AZD7762; first compound 2 µM) | relative viability (Temozolomide + AZD7762; first compound 6.325 µM) | relative viability (Temozolomide + AZD7762; first compound 20 µM) |
| --- | --- | --- | --- | --- | --- | --- | --- | --- | --- | --- | --- | --- | --- | --- | --- | --- | --- | --- | --- | --- |
| HCC-827 | 1.07 | 1.07 | 0.992 | 0.984 | 0.129 | 0.52 | 0.67 | 0.638 | 0.382 | 0.191 | 0.256 | 0.343 | 0.299 | 0.326 | 0.149 | 0.147 | 0.193 | 0.196 | 0.227 | 0.119 |
| HOP-62 | 1.05 | 1 | 1.13 | 0.941 | 1.14 | 0.839 | 0.88 | 0.988 | 0.93 | 0.968 | 0.744 | 0.759 | 0.73 | 0.609 | 0.711 | 0.82 | 0.512 | 0.635 | 0.503 | 0.742 |
| IA-LM | 0.832 | 0.69 | 0.836 | 0.825 | 0.615 | – | – | – | – | – | – | – | – | – | – | – | – | – | – | – |
| LC-2-ad | 0.598 | 0.437 | 0.358 | 0.374 | 0.336 | 0.928 | 1.05 | 1.09 | 0.899 | 0.988 | 0.628 | 0.662 | 0.836 | 0.471 | 0.472 | 0.842 | 0.85 | 0.873 | 0.837 | 0.675 |
| LCLC-103H | – | – | – | – | – | 1.09 | 1.04 | 1.07 | 1.01 | 0.872 | 0.524 | 0.567 | 0.548 | 0.565 | 0.471 | 0.849 | 0.758 | 0.902 | 0.678 | 0.771 |
| NCI-H358 | – | – | – | – | – | – | 0.271 | 0.485 | 0.347 | 0.404 | 0.13 | 0.151 | 0.17 | 0.142 | 0.135 | – | 0.466 | 0.533 | 0.408 | 0.369 |
| NCI-H520 | 1.13 | 1.09 | 1.15 | 1.12 | 1.01 | 0.216 | 0.216 | 0.234 | 0.222 | 0.21 | 0.24 | 0.212 | 0.207 | 0.185 | 0.235 | – | – | – | – | – |
| NCI-H522 | – | – | – | – | – | 0.877 | 1.21 | 0.981 | 1.18 | 1.05 | 0.877 | 0.729 | 0.932 | 0.703 | 0.935 | 0.728 | 0.907 | 0.952 | 0.748 | 0.758 |
| NCI-H650 | – | – | – | – | – | 0.607 | 0.898 | 0.816 | 0.739 | 0.846 | 0.504 | 0.46 | 0.532 | 0.395 | 0.43 | 0.973 | 1.16 | 0.938 | 0.953 | 0.879 |
| NCI-H661 | – | – | – | – | – | 0.977 | 0.931 | 0.934 | 0.879 | 0.843 | 0.781 | 0.953 | 0.962 | 0.762 | 0.706 | – | – | – | – | – |
| NCI-H1299 | 1.04 | 1.09 | 1.06 | 1.01 | 1.08 | – | – | – | – | – | – | – | – | – | – | – | – | – | – | – |
| NCI-H1563 | – | – | – | – | – | 0.472 | 0.499 | 0.525 | 0.533 | 0.487 | 0.454 | 0.481 | 0.453 | 0.366 | 0.447 | – | – | – | – | – |
| NCI-H1623 | – | – | – | – | – | – | 0.488 | 0.416 | 0.361 | 0.519 | – | 0.555 | 0.455 | 0.474 | 0.355 | – | – | – | – | – |
| NCI-H1648 | – | – | – | – | – | – | – | – | – | – | – | – | – | – | – | – | 0.643 | 0.756 | 0.583 | 0.614 |
| NCI-H1650 | 1.39 | 1.33 | 1.08 | 1.28 | 0.974 | 0.187 | 0.205 | 0.178 | 0.189 | 0.217 | 0.356 | 0.329 | 0.343 | 0.318 | 0.28 | – | – | – | – | – |
| NCI-H2009 | 1.2 | 1.22 | 1.12 | 1.17 | 1.25 | 1.08 | 1.04 | 1.02 | 0.971 | 0.983 | 0.316 | 0.299 | 0.404 | 0.306 | 0.326 | – | – | – | – | – |
| NCI-H2023 | 1.02 | 1 | 1.13 | 0.985 | 0.997 | 1.04 | 0.85 | 0.874 | 0.675 | 0.691 | 0.64 | 0.56 | 0.616 | 0.572 | 0.6 | – | – | – | – | – |
| NCI-H2228 | 0.921 | 1.43 | 0.951 | 0.857 | 1.26 | 0.125 | 0.162 | 0.104 | 0.149 | 0.137 | 0.577 | 0.637 | 0.516 | 0.463 | 0.44 | – | – | – | – | – |
| NCI-H2342 | – | – | – | – | – | 0.633 | 0.674 | 0.706 | 0.629 | 0.637 | 0.311 | 0.301 | 0.304 | 0.312 | 0.297 | 0.457 | 0.447 | 0.516 | 0.506 | 0.549 |
| SK-LU-1 | 1.03 | 0.88 | 0.8 | 0.522 | 0.189 | 0.231 | 0.195 | 0.189 | 0.191 | 0.24 | 0.196 | 0.178 | 0.206 | 0.143 | 0.197 | – | – | – | – | – |
| SK-MES-1 | 1.22 | 1.16 | 1.23 | 1.22 | 1.38 | 0.939 | 0.823 | 0.777 | 0.831 | 0.772 | 0.289 | 0.34 | 0.412 | 0.374 | 0.228 | – | – | – | – | – |
| SW 900 | – | – | – | – | – | 0.163 | 0.175 | 0.169 | 0.131 | 0.149 | 0.644 | 0.561 | 0.381 | 0.541 | 0.553 | 0.587 | 0.63 | 0.583 | 0.627 | 0.683 |
| SW 1573 | 0.993 | 1.03 | 1.05 | 1 | 0.935 | 0.295 | 0.331 | 0.273 | 0.206 | 0.28 | 0.532 | 0.533 | 0.594 | 0.355 | 0.489 | – | – | – | – | – |
| UMC-11 | 0.338 | 0.315 | 0.313 | 0.281 | 0.274 | 1.05 | 1.07 | 1.17 | 0.971 | 0.66 | 0.567 | 0.469 | 0.536 | 0.489 | 0.442 | – | – | – | – | – |
